What is called melting point is the temperature of the solid-liquid transition.

SMILES strings stand for the structures.

On to `CN(C)CCNS(=O)(=O)c1ccc(C#Cc2cnn3c(C(F)(F)F)cc(-c4cccc(C(F)(F)F)c4)nc23)s1` [Example 251, 5-[7-Trifluoromethyl-5-(3-trifluoromethyl-phenyl)-pyrazolo[1,5-a]pyrimidin-3-ylethynyl]-thiophene-2-sulfonic acid (2-dimethylamino-ethyl)-amide], for which the melting point was found to be 197 °C. In the case of `Nc1ccc(C#Cc2cnc3c(F)cc(-c4ccc(Cl)cc4)cn23)cn1` [Example 241, 5-[6-(4-Chloro-phenyl)-8-fluoro-imidazo[1,2-a]pyridin-3-ylethynyl]-pyridin-2-ylamine] it was 259 °C. The same measure for `Nc1ccc(C#Cc2cnc3c(C(F)(F)F)cc(-c4ccc(C(F)(F)F)cc4)nn23)cn1` [Example 232, 5-[8-Trifluoromethyl-6-(4-trifluoromethyl-phenyl)-imidazo[1,2-b]pyridazin-3-ylethynyl]-pyridin-2-ylamine]: 267 °C. The same measure for `Cc1ccc(C#Cc2cnn3c(C(F)F)cc(-c4ccc(C(F)(F)F)cc4)nc23)cc1S(N)(=O)=O` [Example 60, 5-[7-Difluoromethyl-5-(4-trifluoromethyl-phenyl)-pyrazolo[1,5-a]pyrimidin-3-ylethynyl]-2-methyl-benzenesulfonamide]: 265 to 267 °C; for `CN(C)S(=O)(=O)c1ccc(C#Cc2cnn3c(C(F)F)cc(-c4ccc(C(F)(F)F)cc4)nc23)cc1` [Example 136, 4-[7-Difluoromethyl-5-(4-trifluoromethyl-phenyl)-pyrazolo[1,5-a]pyrimidin-3-ylethynyl]-N,N-dimethyl-benzenesulfonamide]: 211 to 212 °C; for `O=S(=O)(NCc1cccnc1)c1ccc(C#Cc2cnn3c(C(F)(F)F)cc(-c4ccc(C(F)(F)F)cc4)nc23)s1` [Example 273, 5-[7-Trifluoromethyl-5-(4-trifluoromethyl-phenyl)-pyrazolo[1,5-a]pyrimidin-3-ylethynyl]-thiophene-2-sulfonic acid (pyridin-3-ylmethyl)-amide]: 177 °C.

Turning to `O=S(=O)(c1ccc(C#Cc2cnn3c(C(F)(F)F)cc(-c4ccc(C(F)(F)F)cc4)nc23)s1)N(CCO)CCO` [Example 162, 5-[7-Trifluoromethyl-5-(4-trifluoromethyl-phenyl)-pyrazolo[1,5-a]pyrimidin-3-ylethynyl]-thiophene-2-sulfonic acid bis-(2-hydroxy-ethyl)-amide], the melting point is 137 °C.

`Nc1ccc(C#Cc2cnc3ccc(-c4ccc(C(F)(F)F)cc4)cn23)cn1` [Example 237, 5-[6-(4-Trifluoromethyl-phenyl)-imidazo[1,2-a]pyridin-3-ylethynyl]-pyridin-2-ylamine] displayed a melting point of 241 to 244 °C. In the case of `COCCNS(=O)(=O)c1cccc(C#Cc2cnn3c(C(F)F)cc(-c4ccc(C(F)(F)F)cc4)nc23)c1` [Example 146, 3-[7-Difluoromethyl-5-(4-trifluoromethyl-phenyl)-pyrazolo[1,5-a]pyrimidin-3-ylethynyl]-N-(2-methoxy-ethyl)-benzenesulfonamide] it was 147 to 148 °C; in that of `CCCc1cc(-c2ccc(Cl)cc2)nc2c(C#Cc3ccc(N)nc3)cnn12` [Example 305, 5-[5-(4-Chloro-phenyl)-7-propyl-pyrazolo[1,5-a]pyrimidin-3-ylethynyl]-pyridin-2-ylamine], 215 to 217 °C.

In turn, `CC(C)(CO)NS(=O)(=O)c1cnc(C#Cc2cnn3c(C4CC4)cc(-c4ccc(C(F)(F)F)cc4)nc23)s1` [Example 82, 2-[7-Cyclopropyl-5-(4-trifluoromethyl-phenyl)-pyrazolo[1,5-a]pyrimidin-3-ylethynyl]-thiazole-5-sulfonic acid (2-hydroxy-1,1-dimethyl-ethyl)-amide] showed a melting point of 243 to 245 °C. The same measure for `Cc1cc(-c2ccc(Cl)cc2)nc2c(C#Cc3ccc(S(N)(=O)=O)cc3)cnn12` [Example 292, 4-[5-(4-Chloro-phenyl)-7-methyl-pyrazolo[1,5-a]pyrimidin-3-ylethynyl]-benzenesulfonamide]: 230 to 233 °C.

Source of the values: patent publication US8063048B2, “Acetylenyl-pyrazolo-pyrimidine derivatives” (Hoffmann-La Roche Inc., priority 2005, dated 2011).
